The results in this text go back to the supplement of paper PMC10307832.

Holding throughout (assay): relative viability (nuclei count vs DMSO), 5 days (fraction); higher = more cells survive
Compound in assay [1]: CC1=CC=C(C=C1)C(=O)CN2C3=C(CCCC3)SC2=N [Pifithrin_alpha] + NC(=O)Nc1cc(-c2cccc(F)c2)sc1C(=O)N[C@H]1CCCNC1 [AZD7762] (partner 0.2 µM)
The procedure, abridged:
(§1)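 After 5 days of treatment, lung cancer cells in 1536-well plates were fixed and stained in a single step (final 0.05% Triton X-100, 1% formaldehyde, 1 ug/ml Hoechst) and their nuclei counted on 4× images. Treatment had been applied by pin tool the day after seeding as one drug alone or as a fixed anchor-drug dose with five library-drug doses (not always all listed) in √10 steps. Relative viability is the nuclei count of treated wells divided by that of vehicle wells, and values are medians of duplicate plates.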

Compound in the assay “Axitinib + Bortezomib”: CNC(=O)c1ccccc1Sc1ccc2c(/C=C/c3ccccn3)n[nH]c2c1 [Axitinib] + CC(C)C[C@H](NC(=O)[C@H](Cc1ccccc1)NC(=O)c1cnccn1)B(O)O [Bortezomib] (partner 0.002 µM)
The procedure, abridged: as §1

Compound in the assay “Axitinib + Alpelisib”: CNC(=O)c1ccccc1Sc1ccc2c(/C=C/c3ccccn3)n[nH]c2c1 [Axitinib] + Cc1nc(NC(=O)N2CCC[C@H]2C(N)=O)sc1-c1ccnc(C(C)(C)C(F)(F)F)c1 [Alpelisib] (partner 2 µM)
An outline of the steps:
as §1

Compound in assay [2]: CC1=CC=C(C=C1)C(=O)CN2C3=C(CCCC3)SC2=N [Pifithrin_alpha] + O=C(CCCCCCC(=O)Nc1ccccc1)NO [Vorinostat] (partner 1 µM)
An outline of the steps:
as §1

Consider PC-14, for which the relative viability in assay [1] (first compound 1 µM) was determined as 0.217; in assay [1] (first compound 3.162 µM) it was 0.194; in assay [1] (first compound 10 µM), 0.251; in assay [1] (first compound 31.62 µM) it was 0.213; in assay [1] (first compound 100 µM) it was 0.263; with Axitinib + Bortezomib (first compound 0.005 µM), 1.04. Further, the relative viability came to 0.894 in the assay with Axitinib + Bortezomib (first compound 0.01581 µM); 0.81 with Axitinib + Bortezomib (first compound 0.05 µM); 0.826 with Axitinib + Bortezomib (first compound 0.1581 µM); 1.08 with Axitinib + Bortezomib (first compound 0.5 µM); 1.02 with Axitinib + Alpelisib (first compound 0.005 µM); 0.931 in the assay with Axitinib + Alpelisib (first compound 0.01581 µM). The relative viability with Axitinib + Alpelisib (first compound 0.05 µM) worked out at 0.94; with Axitinib + Alpelisib (first compound 0.1581 µM), 0.893; with Axitinib + Alpelisib (first compound 0.5 µM), 1.05; in assay [2] (first compound 1 µM), 0.626; in assay [2] (first compound 3.162 µM), 0.77; in assay [2] (first compound 10 µM) it was 0.802. For the same cell line, the relative viability amounted to 0.414 in assay [2] (first compound 31.62 µM) and 0.625 in assay [2] (first compound 100 µM).
On to RERF-LC-KJ, for which the relative viability in assay [1] (first compound 1 µM) is 0.628; in assay [1] (first compound 3.162 µM), 0.882; in assay [1] (first compound 10 µM), 0.941; in assay [1] (first compound 31.62 µM), 0.981; in assay [1] (first compound 100 µM), 0.854; with Axitinib + Bortezomib (first compound 0.005 µM) it was 1.12. The relative viability worked out at 1.12 in the assay with Axitinib + Bortezomib (first compound 0.01581 µM); 1.02 with Axitinib + Bortezomib (first compound 0.05 µM); 1.14 with Axitinib + Bortezomib (first compound 0.1581 µM); 1.19 in the assay with Axitinib + Bortezomib (first compound 0.5 µM); 0.87 with Axitinib + Alpelisib (first compound 0.005 µM); 0.767 with Axitinib + Alpelisib (first compound 0.01581 µM). Further, the relative viability in the assay with Axitinib + Alpelisib (first compound 0.05 µM) is 0.842; with Axitinib + Alpelisib (first compound 0.1581 µM), 0.77; with Axitinib + Alpelisib (first compound 0.5 µM) it was 0.876; in assay [2] (first compound 1 µM), 0.329; in assay [2] (first compound 3.162 µM) it was 0.627; in assay [2] (first compound 10 µM) it was 0.547. The figures for the relative viability in assay [2] (first compound 31.62 µM) and in assay [2] (first compound 100 µM) were 0.448 and 0.488, respectively.
